These results are taken from patent US6469008B2, “(R)-hydroxynefazodone antipsychotic therapy” (Sepracor Inc., priority 1999, dated 2002).

For one assay, the target named is α1 Receptor. Put plainly: α1 receptor binding. As to conditions: read-out: α1 Receptor Binding Alpha1 (IC50).
A further assay concerns the target T1, D3 (Homo sapiens, UniProt P35462).
T1 construct: host or cells: membrane preparations
In words: Dopamine D3 receptor binding. On the procedure: (§1) Dopamine and serotonin receptor binding assays were performed in a standard manner with the incubation of membrane preparations in an assay buffer in the presence of a known radioactively labeled specific ligand for the receptor subtypes. Nonspecific binding was determined by assessing binding in the presence of excess ligand. Specific binding was measured as the total labeled ligand bound after the nonspecific binding was subtracted. The effect of the tested agents was measured by determining the competition for the receptor binding across a concentration range. Subsequently, an IC50 was determined for the agents tested. More specific details are provided below for several of the assays performed.

The target in the next assay is T2, D1 (Homo sapiens, UniProt P21728).
T2 construct: host or cells: membrane preparations
Put plainly: Dopamine D1 receptor binding. Here is the method: as §1

A further assay has as its target T3, 5-HT1D (Homo sapiens, UniProt P28221).
T3 construct: host or cells: membrane preparations
Put plainly: 5-HT1D receptor binding. The settings on record: read-out: Serotonin Receptor Binding 5-HT1D (IC50). On the procedure: as §1

The target in a further assay is T4, Human 5-HT2C receptor (Homo sapiens, UniProt P28335).
T4 construct: expressed in transfected cells; host or cells: CHO cells
T4 sequence (P28335 33-458): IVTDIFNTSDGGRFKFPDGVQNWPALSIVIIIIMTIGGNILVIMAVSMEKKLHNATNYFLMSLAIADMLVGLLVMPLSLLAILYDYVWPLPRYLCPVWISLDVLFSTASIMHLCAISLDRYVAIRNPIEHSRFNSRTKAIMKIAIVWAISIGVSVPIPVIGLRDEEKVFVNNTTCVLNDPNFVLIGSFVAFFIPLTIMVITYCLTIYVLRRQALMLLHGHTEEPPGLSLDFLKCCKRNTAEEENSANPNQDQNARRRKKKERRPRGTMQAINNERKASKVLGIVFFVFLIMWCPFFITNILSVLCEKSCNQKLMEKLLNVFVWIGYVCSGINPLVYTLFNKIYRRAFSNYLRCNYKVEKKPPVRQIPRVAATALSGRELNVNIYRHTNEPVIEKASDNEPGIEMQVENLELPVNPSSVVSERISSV
In words: 5-HT2C receptor binding. The settings on record: [3H]mesulergine, transfected CHO cell membranes; read-out: Serotonin Receptor Binding 5HT2C (IC50). Here is the method: as §1
Aliquots of transfected CHO cell membrane preparations corresponding to 5-10 μg protein are incubated for 30 min at 37° C. in 250 μl of 50 mM Tris-HCl buffer (pH 7.7) containing 10 μM pargyline, 0.7 nM [^3H]mesulergine and increasing concentrations of the competing drugs. Nonspecific binding is determined in the presence of 1 μM mesulergine. After incubation, the samples are filtered rapidly under vacuum through glass fiber filters (GF/B, Packard) and rinsed several times with ice-cold 50 mM Tris-HCl using a cell harvester (Packard). Bound radioactivity is measured with a scintillation counter (Topcount, Packard) using a liquid scintillation cocktail (Microscint 0, Packard). The reference compound for this assay is mesulergine.

For the next assay, the target named is T5, Human 5-HT2A receptor (Homo sapiens, UniProt P28223).
T5 construct: expressed in transfected cells; host or cells: CHO cells
Put plainly: 5-HT2A receptor binding. The settings on record: [3H]ketanserin, transfected CHO cell membranes; read-out: Serotonin Receptor Binding 5-HT2A (IC50). On the procedure: as §1
Aliquots of transfected CHO cell membrane preparations corresponding to 20-50 μg protein are incubated for 15 min at 37° C. in 250 μl of 50 mM Tris-HCl buffer (pH 7.4) containing 2 nM [^3H]ketanserin and increasing concentrations of the competing drugs. Nonspecific binding is determined in the presence of 1 μM ketanserin. After incubation, the samples are filtered rapidly under vacuum through glass fiber filters (GF/B, Packard) and rinsed several times with ice-cold 50 mM Tris-HCl using a cell harvester (Packard). Bound radioactivity is measured with a scintillation counter (Topcount, Packard) using a liquid scintillation cocktail (Microscint 0, Packard).
The reference compound for this assay is ketanserin.

The target of a further assay is T6, 5-HT1A receptors (Homo sapiens, UniProt P08908).
T6 sequence (P08908 1-422): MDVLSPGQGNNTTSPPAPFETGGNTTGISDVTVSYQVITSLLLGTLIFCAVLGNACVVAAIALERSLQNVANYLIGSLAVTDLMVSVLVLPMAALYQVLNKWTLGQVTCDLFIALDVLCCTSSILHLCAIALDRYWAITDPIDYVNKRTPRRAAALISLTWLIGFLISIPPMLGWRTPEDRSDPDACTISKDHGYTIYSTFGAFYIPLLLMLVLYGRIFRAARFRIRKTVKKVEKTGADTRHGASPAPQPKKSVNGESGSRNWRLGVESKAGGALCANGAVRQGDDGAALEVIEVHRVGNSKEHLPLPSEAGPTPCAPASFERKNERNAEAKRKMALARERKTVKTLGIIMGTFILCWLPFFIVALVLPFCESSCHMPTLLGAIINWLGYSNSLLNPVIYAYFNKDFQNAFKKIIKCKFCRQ
In words: 5-HT1A receptor binding. The settings on record: [3H]8-OH-DPAT, transfected CHO cell membranes; read-out: Serotonin Receptor Binding 5-HT1A (IC50). Also noted: expressed in transfected cells; host or cells: CHO cells. Here is the method:
as §1
Aliquots of transfected CHO cell membrane preparations corresponding to 7-15 μg protein are incubated for 60 min at 22° C. in 250 μl of 50 mM Tris-HCl buffer (pH 7.4) containing 10 mM MgSO4, 0.5 mM EDTA, 0.3 nM [^3H]8-OH-DPAT and increasing concentrations of the competing drugs. Nonspecific binding is determined in the presence of 10 μM 8-OH-DPAT. After incubation, the samples are filtered rapidly under vacuum through glass fiber filters (GF/B, Packard) and rinsed several times with ice-cold 50 mM Tris-HCl using a cell harvester (Packard). Bound radioactivity is measured with a scintillation counter (Topcount, Packard) using a liquid scintillation cocktail (Microscint 0, Packard). The reference compound for this assay is 8-OH-DPAT.

T3 sequence (P28221 whole entry, species assumed): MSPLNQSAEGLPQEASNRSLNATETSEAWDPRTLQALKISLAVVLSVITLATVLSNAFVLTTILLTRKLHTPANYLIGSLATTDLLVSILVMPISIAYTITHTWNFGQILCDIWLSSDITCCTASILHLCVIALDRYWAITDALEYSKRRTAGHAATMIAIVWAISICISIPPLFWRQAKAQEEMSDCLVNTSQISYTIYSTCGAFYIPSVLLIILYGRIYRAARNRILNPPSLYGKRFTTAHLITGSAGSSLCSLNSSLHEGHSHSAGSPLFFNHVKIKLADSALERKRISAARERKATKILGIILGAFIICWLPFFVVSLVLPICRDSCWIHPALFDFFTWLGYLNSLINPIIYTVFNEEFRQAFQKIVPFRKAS
T2 sequence (P21728 whole entry): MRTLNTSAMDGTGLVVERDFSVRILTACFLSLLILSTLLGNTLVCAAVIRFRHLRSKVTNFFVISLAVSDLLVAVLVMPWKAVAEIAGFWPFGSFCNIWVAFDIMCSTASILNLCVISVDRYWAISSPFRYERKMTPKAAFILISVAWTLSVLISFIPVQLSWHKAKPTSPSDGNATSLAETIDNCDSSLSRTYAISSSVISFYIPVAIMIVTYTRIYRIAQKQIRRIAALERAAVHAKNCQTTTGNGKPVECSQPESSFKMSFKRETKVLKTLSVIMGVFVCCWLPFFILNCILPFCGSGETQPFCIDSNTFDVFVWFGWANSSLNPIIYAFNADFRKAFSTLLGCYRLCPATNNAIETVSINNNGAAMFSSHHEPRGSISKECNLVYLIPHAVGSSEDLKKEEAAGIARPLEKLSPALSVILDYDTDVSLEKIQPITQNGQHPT
T5 sequence (P28223 whole entry): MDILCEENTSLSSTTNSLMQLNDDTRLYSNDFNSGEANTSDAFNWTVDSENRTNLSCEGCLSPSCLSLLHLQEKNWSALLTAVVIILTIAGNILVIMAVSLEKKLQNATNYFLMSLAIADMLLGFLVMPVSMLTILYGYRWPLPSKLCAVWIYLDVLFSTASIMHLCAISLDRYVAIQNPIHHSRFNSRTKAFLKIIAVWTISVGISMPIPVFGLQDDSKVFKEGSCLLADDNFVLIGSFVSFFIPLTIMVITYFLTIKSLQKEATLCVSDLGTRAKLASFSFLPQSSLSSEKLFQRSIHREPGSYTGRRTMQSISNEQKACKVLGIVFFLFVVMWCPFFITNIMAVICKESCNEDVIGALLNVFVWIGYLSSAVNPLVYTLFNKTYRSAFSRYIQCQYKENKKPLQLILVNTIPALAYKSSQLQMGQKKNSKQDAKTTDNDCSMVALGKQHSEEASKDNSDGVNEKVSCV
T1 sequence (P35462 whole entry): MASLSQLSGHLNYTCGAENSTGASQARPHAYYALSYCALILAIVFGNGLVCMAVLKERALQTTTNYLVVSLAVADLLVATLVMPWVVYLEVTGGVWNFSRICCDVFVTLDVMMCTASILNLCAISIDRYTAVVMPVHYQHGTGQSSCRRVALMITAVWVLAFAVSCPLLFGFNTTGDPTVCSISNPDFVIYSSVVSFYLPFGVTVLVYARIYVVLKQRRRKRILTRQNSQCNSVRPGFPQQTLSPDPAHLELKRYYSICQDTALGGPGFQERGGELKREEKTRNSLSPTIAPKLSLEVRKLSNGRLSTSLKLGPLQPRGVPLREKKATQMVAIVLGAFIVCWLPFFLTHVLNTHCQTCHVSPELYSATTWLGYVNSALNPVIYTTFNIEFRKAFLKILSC

By IC50 is commonly meant the concentration that gives 50% inhibition. As to `C[C@H](O)c1nn(CCCN2CCN(c3cccc(Cl)c3)CC2)c(=O)n1CCOc1ccccc1` [(S)-OH, (S)-2-{3-[4-(3-Chlorophenyl)-1-piperazinyl]propyl}-4-(2-phenoxyethyl)-5-[1-(hydroxy)-ethyl]-2,4-dihydro-[1,2,4]triazol-3-one], the IC50 at α1 Receptor was found to be 419 nM; at D3, 1910 nM; at D1 it was 2310 nM; at 5-HT1D, 234 nM; at Human 5-HT2C receptor, 34 nM; on Human 5-HT2A receptor it was 18 nM. In addition, the IC50 at 5-HT1A receptors worked out at 249 nM.

Turning to `CC(O)c1nn(CCCN2CCN(c3cccc(Cl)c3)CC2)c(=O)n1CCOc1ccccc1` (racemic) [(RS)-OH, 2-[3-[4-(3-chlorophenyl)1-piperazinyl]propyl]-5-(1-hydroxyethyl)-2,4-dihydro-4-(phenoxyethyl)-3H-1,2,4-triazol-3-one, reference compound], the IC50 at α1 Receptor was determined as 381 nM; on D3 it was 2560 nM; at D1 it was 2270 nM; on 5-HT1D, 1150 nM; on Human 5-HT2C receptor it was 46 nM; on Human 5-HT2A receptor, 20 nM. For the same compound, the IC50 on 5-HT1A receptors was found to be 409 nM.

Consider `C[C@@H](O)c1nn(CCCN2CCN(c3cccc(Cl)c3)CC2)c(=O)n1CCOc1ccccc1` [(R)-OH, (R)-hydroxynefazodone], for which the IC50 was 367 nM on α1 Receptor; 3490 nM at D3; 1690 nM on D1; 1990 nM at 5-HT1D; 33 nM at Human 5-HT2C receptor; 22 nM at Human 5-HT2A receptor. Also, the IC50 at 5-HT1A receptors turned out to be 496 nM.
